Experimental data as given in paper PMC8843100, “Development of newly synthesised quinazolinone-based CDK2 inhibitors with potent efficacy against melanoma” (Journal of Enzyme Inhibition and Medicinal Chemistry, 2022).

Columns and labels:
Test in all cases: NCI-60 single dose screen, sulforhodamine B
Format in all cases: cell-based, human
[1] = system: A549/ATCC; conditions: Non-small cell lung cancer A549/ATCC; single dose 10^−5 M
Procedure, shortened: (§1)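 Each compound, in DMSO, was applied once at 10 µM to cells pre-grown for a day; after a further 2-day incubation the cells were fixed and stained with sulforhodamine B.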

[2] = system: HT29; conditions: Colon cancer HT29; single dose 10^−5 M
Procedure, shortened: as §1

[3] = system: NCI-H226; conditions: Non-small cell lung cancer NCI-H226; single dose 10^−5 M
Procedure, shortened: as §1

[4] = system: MDA-MB-231/ATCC; conditions: Breast cancer MDA-MB-231/ATCC; single dose 10^−5 M
Procedure, shortened: as §1

[5] = system: MDA-MB-435; conditions: Melanoma MDA-MB-435; single dose 10^−5 M
Procedure, shortened: as §1

[6] = system: UACC-257; conditions: Melanoma UACC-257; single dose 10^−5 M
Procedure, shortened: as §1

[7] = system: A498; conditions: Renal cancer A498; single dose 10^−5 M
Procedure, shortened: as §1

[8] = system: SF-268; conditions: CNS cancer SF-268; single dose 10^−5 M
Procedure, shortened: as §1

[9] = system: EKVX; conditions: Non-small cell lung cancer EKVX; single dose 10^−5 M
Procedure, shortened: as §1

[10] = system: PC-3; conditions: Prostate cancer PC-3; single dose 10^−5 M
Procedure, shortened: as §1

[11] = system: SNB-19; conditions: CNS cancer SNB-19; single dose 10^−5 M
Procedure, shortened: as §1

[12] = system: NCI-H460; conditions: Non-small cell lung cancer NCI-H460; single dose 10^−5 M
Procedure, shortened: as §1

[13] = system: NCI/ADR-RES; conditions: Ovarian cancer NCI/ADR-RES; single dose 10^−5 M
Procedure, shortened: as §1

[14] = system: NCI-H23; conditions: Non-small cell lung cancer NCI-H23; single dose 10^−5 M
Procedure, shortened: as §1

[15] = system: SW-620; conditions: Colon cancer SW-620; single dose 10^−5 M
Procedure, shortened: as §1

[16] = system: OVCAR-8; conditions: Ovarian cancer OVCAR-8; single dose 10^−5 M
Procedure, shortened: as §1

[17] = system: U251; conditions: CNS cancer U251; single dose 10^−5 M
Procedure, shortened: as §1

[18] = system: OVCAR-3; conditions: Ovarian cancer OVCAR-3; single dose 10^−5 M
Procedure, shortened: as §1

[19] = system: NCI-H322M; conditions: Non-small cell lung cancer NCI-H322M; single dose 10^−5 M
Procedure, shortened: as §1

[20] = system: TK-10; conditions: Renal cancer TK-10; single dose 10^−5 M
Procedure, shortened: as §1

[21] = system: SK-MEL-5; conditions: Melanoma SK-MEL-5; single dose 10^−5 M
Procedure, shortened: as §1

[22] = system: SK-MEL-28; conditions: Melanoma SK-MEL-28; single dose 10^−5 M
Procedure, shortened: as §1

[23] = system: ACHN; conditions: Renal cancer ACHN; single dose 10^−5 M
Procedure, shortened: as §1

[24] = system: BT-549; conditions: Breast cancer BT-549; single dose 10^−5 M
Procedure, shortened: as §1

[25] = system: MOLT-4; conditions: Leukaemia MOLT-4; single dose 10^−5 M
Procedure, shortened: as §1

[26] = system: COLO 205; conditions: Colon cancer COLO 205; single dose 10^−5 M
Procedure, shortened: as §1

[27] = system: SR; conditions: Leukaemia SR; single dose 10^−5 M
Procedure, shortened: as §1

[28] = system: HOP-92; conditions: Non-small cell lung cancer HOP-92; single dose 10^−5 M
Procedure, shortened: as §1

[29] = system: T-47D; conditions: Breast cancer T-47D; single dose 10^−5 M
Procedure, shortened: as §1

[30] = system: HCT-116; conditions: Colon cancer HCT-116; single dose 10^−5 M
Procedure, shortened: as §1

[31] = system: HCC-2998; conditions: Colon cancer HCC-2998; single dose 10^−5 M
Procedure, shortened: as §1

SMILES	GI% at 10^−5 M [1]	GI% at 10^−5 M [2]	GI% at 10^−5 M [3]	GI% at 10^−5 M [4] [%]	GI% at 10^−5 M [5]	GI% at 10^−5 M [6]	GI% at 10^−5 M [7] [%]	GI% at 10^−5 M [8]	GI% at 10^−5 M [9] [%]	GI% at 10^−5 M [10]	GI% at 10^−5 M [11]	GI% at 10^−5 M [12]	GI% at 10^−5 M [13]	GI% at 10^−5 M [14]	GI% at 10^−5 M [15]	GI% at 10^−5 M [16]	GI% at 10^−5 M [17]	GI% at 10^−5 M [18]	GI% at 10^−5 M [19]	GI% at 10^−5 M [20]	further results
CN1CCN(CC(=O)Nn2c(COc3ccccc3)nc3ccccc3c2=O)CC1 [Compound 8a, 2–(4-methylpiperazin-1-yl)-N-(4-oxo-2-(phenoxymethyl)quinazolin-3(4H)-yl)acetamide]	– (– means GI < 10%)	26.89%	15.39%	21.65	94.15%	– (– means GI < 10%)	18.24	– (– means GI < 10%)	13.93	– (– means GI < 10%)	13.65%	– (– means GI < 10%)	28.41%	– (– means GI < 10%)	42.80%	– (– means GI < 10%)	18.55%	– (– means GI < 10%)	– (– means GI < 10%)	– (– means GI < 10%)	GI% at 10^−5 M [21]: 17.11%; GI% at 10^−5 M [22]: – (– means GI < 10%); GI% at 10^−5 M [23]: – (– means GI < 10%); GI% at 10^−5 M [24]: – (– means GI < 10%); GI% at 10^−5 M [25]: 11.86%; GI% at 10^−5 M [26]: 15.89%; GI% at 10^−5 M [27]: 69.55%; GI% at 10^−5 M [28]: – (– means GI < 10%); GI% at 10^−5 M [29]: 32.2%; GI% at 10^−5 M [30]: 18.15%; GI% at 10^−5 M [31]: 10.06%
COc1ccc(NC(=O)CNn2c(COc3ccccc3)nc3ccccc3c2=O)cc1 [Compound 4b, N-(4-methoxyphenyl)-2-((4-oxo-2-(phenoxymethyl)quinazolin-3(4H)-yl)amino)acetamide]	– (– means GI < 10%)	– (– means GI < 10%)	– (– means GI < 10%)	11.38	– (– means GI < 10%)	– (– means GI < 10%)	34.65	– (– means GI < 10%)	10.17	9.76%	– (– means GI < 10%)	– (– means GI < 10%)	– (– means GI < 10%)	– (– means GI < 10%)	– (– means GI < 10%)	– (– means GI < 10%)	– (– means GI < 10%)	– (– means GI < 10%)	– (– means GI < 10%)	– (– means GI < 10%)	GI% at 10^−5 M [21]: – (– means GI < 10%); GI% at 10^−5 M [22]: – (– means GI < 10%); GI% at 10^−5 M [23]: – (– means GI < 10%); GI% at 10^−5 M [24]: – (– means GI < 10%); GI% at 10^−5 M [25]: – (– means GI < 10%); GI% at 10^−5 M [26]: – (– means GI < 10%); GI% at 10^−5 M [27]: – (– means GI < 10%); GI% at 10^−5 M [28]: 16.34%; GI% at 10^−5 M [29]: – (– means GI < 10%); GI% at 10^−5 M [30]: – (– means GI < 10%); GI% at 10^−5 M [31]: – (– means GI < 10%)
